Reference: patent US10086086B2, “Payload molecule delivery using molecular rebar” (Molecular Rebar Design, LLC, priority 2014, dated 2018)
Like-named read-outs stand apart in the source and are kept apart here.

Columns and labels:
[1] = Displacement of adsorbed payload molecule from discrete carbon nanotubes by later addition of PVOH; type: physicochemical
[2] = in water, cited from earlier work
[3] = not given; remark: listed apart in the source

Q: Which “D4MBP originally residing on the outermost wall displaced by the PVOH, estimated” value ([1]; Example 10, calculation as in Example 1) does the source give for `CCOP(=O)(Cc1ccc(OC)cc1)OCC` [D4MBP] here?
A: about 80%

Q: For `NC(=O)CC[C@@H]1NC(=O)[C@H](Cc2ccccc2)NC(=O)[C@H](Cc2ccc(O)cc2)NC(=O)CCSSC[C@@H](C(=O)N2CCC[C@H]2C(=O)N[C@H](CCCN=C(N)N)C(=O)NCC(N)=O)NC(=O)[C@H](CC(N)=O)NC1=O` [Desmopressin], which “Hydrodynamic Radius” value [2] is on record?
A: 0.88 nm

Q: Which “adsorbed niacin released by subsequent addition of PVOH” value ([1]; Example 4: PVOH added after niacin adsorption equilibrium, weight ratio 0.23 PVOH:1 discrete carbon nanotubes) does the source give for `O=C(O)c1cccnc1` [Niacin, Pyridine-3-carboxylic acid] here?
A: 25 % wt.

Q: And the “Hydrodynamic Radius” value [2]?
A: 0.33 nm

Q: And the “ratio of niacin adsorbed internally versus externally (times less internally)” value (Example 1, assumes same adsorption concentration on both walls)?
A: about 2.4 times

Q: What about the “amount of niacin adsorbed after 5 hours” value (Example 2: nanotubes with 0.05% weight oxidized species, otherwise as Example 1) of the same molecule?
A: 0.088 g niacin/g discrete carbon nanotubes

Q: What about the “niacin adsorbed, less than in Example 1” value (Example 3 (PVOH added at the same time) versus Example 1 (no PVOH)) of the same molecule?
A: ~30%

Q: What about the “concentration of adsorbed niacin after a further 85 minutes” value (Example 5: nanotubes pretreated with PVOH about 20 hours, then niacin added, 100 + 85 minutes) of the same molecule?
A: 0.0226 g niacin/g of discrete carbon nanotubes

Q: What about the “final adsorption of niacin after sodium hydroxide addition” value ([3]; Example 6: no PVOH, 2 ml 0.1 molar sodium hydroxide added after equilibrium, pH from about 4 to about 7.3, about 180 minutes) of the same molecule?
A: 0.03 g niacin/g discrete carbon nanotubes

Q: What about the “reduction of the amount of niacin adsorbed on the discrete carbon nanotubes after sodium hydroxide addition” value ([3]; Example 7: PVOH-encapsulated, 2 ml 0.1 Molar sodium hydroxide, overall period 40 + 55 + 110 minutes, pH about 4.2 to 8) of the same molecule?
A: about 42%

Q: What about the “equilibrium niacin concentration on discrete carbon nanotubes before pH increase” value ([3]; Example 7: niacin then PVOH, PVOH to discrete carbon nanotubes 0.3:1 by weight) of the same molecule?
A: 0.0476 g niacin/g discrete carbon nanotubes

Q: With `CN1CCCC1c1cccnc1` (centres unmarked) [Nicotine] as the molecule, how does the “Hydrodynamic Radius” value [2] read?
A: 0.38 nm

Q: Which results are given for Bovine serum albumin?
A: Hydrodynamic Radius [2]: 7.0 nm; Hydrodynamic Radius ([2]; listed as bovine serum albumin): 7 nm

Q: Which “Hydrodynamic Radius” value [2] does the source give for Cytochrome C here?
A: 2.64 nm

Q: Which “Hydrodynamic Radius” value [2] does the source give for Insulin here?
A: 2.1 nm

B1: Myoglobin (protein, UniProt P68082 2-154, looked up)
Myoglobin: GLSDGEWQQVLNVWGKVEADIAGHGQEVLIRLFTGHPETLEKFDKFKHLKTEAEMKASEDLKKHGTVVLTALGGILKKKGHHEAELKPLAQSHATKHKIPIKYLEFISDAIIHVLHSKHPGDFGADAQGAMTKALELFRNDIAAKYKELGFQG
Q: For B1, which “Hydrodynamic Radius” value [2] is on record?
A: 3.34 nm
